The results in this text go back to patent publication US20230137491A1, “PEPTIDES AND USES THEREOF” (SINTICA BIOTECH SOCIETÀ A RESPONSABILITÀ LIMITATA …, priority 2020, published 2023).

Non-standard residues stand in square brackets, D forms with d.

Test [1] relates to melanoma cell lines (WM115, WM266-4, SKmel28, WM793B, 1205Lu). Kind of test: MTT assay in melanoma cell lines. In kind it is cell-based, human. To be noted: for proliferation (MTT assay) with NSAID: WM115, WM266-4 and SKMEL28, increasing concentrations, 48 hrs. The method, then:
5×10^3 cells/well were seeded in 96-well culture plates. At different time points, cells were incubated with 0.5% MTT (3-(4,5-dimethylthiazol-2-yl)-2,5-diphenyltetrazolium bromide) for 4 h at 37° C. and then dissolved with 100 μl Isopropanol with 0.04N HCl. The plate was read at 560 nm with a reference filter of 650 nm. Results are expressed as viability percentage, as compared to control.
Five melanoma cell lines were used for testing the efficacy of XYZ or its non-PEGylated peptide component: WM115 and WM266-4, which are respectively the primary and metastatic melanoma derived from the same patient and expressing high levels of CD271, and SKme128, a metastatic melanoma cell line expressing low levels of CD271, WM793B, a primary melanoma, and 1205Lu derived from lung metastatic melanoma. The viability of the cell culture is assessed by MTT conversion. MTT solution is applied to the plates and placed into a cell culture incubator for 4 hours. The blue formazan metabolite produced by viable cells is then extracted into isopropanol and absorbance is measured at 570 nm using a spectrophotometer.
In general terms: Tetrazolium assays rely on reduction of a dye to a coloured formazan, in cell work by metabolically active cells.

The subject of test [2] is CD271 expression in melanoma cell lines. Description: CD271 protein expression by Western blotting and flow cytometry. In kind it is cell-based, human. To be noted: WM115, WM266-4 and SKMEL28, 1 to 2.5 mM, 48 h treatment. As for the experimental part: FIG. 7. Chemotherapy up-regulates CD271 in primary and metastatic melanoma cell lines. (A) A real-time PCR using primers for intra- and extracellular CD271 receptor was performed on RNA extracts from three melanoma cell lines after treatment with carmustine (BCNU), cisplatin, dacarbazine (DTIC) or diluent. (B) Protein extracts from the three melanoma cell lines treated with different doses of cisplatin, carmustine, dacarbazine or diluent were separated on polyacrylamide gel and transferred onto nitrocellulose membranes. (C) Melanoma cell lines were treated with the chemotherapy or the diluent (see above) stained with anti CD271 mAb and analysed by flow cytometry.
FIG. 13. Non-steroid anti-inflammatory drugs (NSAID) enhance CD271 levels in melanoma cell lines. Three melanoma cell lines were treated with increasing doses of ketoprofen (A) or ibuprofen (B) and the percentage of CD271 positive cells was measured by flow cytometry.
Melanoma cell lines were treated with the chemotherapy or the diluent for 48 h, then were harvested and incubated with anti CD271 antibody (1:100 in PBS, Lab Vision Corporation, Thermo Fisher Scientific, Fremont, Calif., USA) for 20 min at 4° C. Cells were labeled with secondary antibody Alexa Fluor anti-mouse 488 (1:50, Thermo Fisher Scientific) for 20 min at 4° C. and analyzed with Epics XL flow cytometer (Beckman Coulter). […]
For orientation: Immunoblotting shows a protein as a band on a membrane.

Turning to `CC(C)Cc1ccc(C(C)C(=O)O)cc1` (centres unmarked) [ibuprofen, reference compound], in test [1], the “proliferation (MTT assay) with NSAID” value is given as “dose-dependently decreases proliferation”. In test [2], the “CD271 protein levels (percentage of CD271 positive cells, flow cytometry)” value is recorded as “increased CD271 protein levels”.

On to “Ac-[dM][dL]G[dI][dI][dA]G[dK][dN][dS]G-NH2 [non-PEGylated peptide]”, for which the “cell proliferation (MTT assay)” value in test [1] (five melanoma cell lines, 48 h and 96 h after treatment, no significant difference between PEGylated and non-PEGylated form) was “reduce cell proliferation”.

Turning to `CC(C(=O)O)c1cccc(C(=O)c2ccccc2)c1` (centres unmarked) [ketoprofen, reference compound], the “proliferation (MTT assay) with NSAID” value in test [1] is recorded as “dose-dependently decreases proliferation”. Further, the “CD271 protein levels (percentage of CD271 positive cells, flow cytometry)” value in test [2] is on record as “increased CD271 protein levels”.
